# Species on record: Rattus norvegicus
# Assay: DrugMatrix - Regimen: Daily Repeat
# Format: toxicity, organism-based, Sprague-Dawley
# Design: regimen Daily Repeat, gender Male, age 6-8 weeks
# Conditions: in vivo, po, route oral GAVAGE, […]; for ABSOLUTE BASOPHIL / ABSOLUTE EOSINOPHIL / ABSOLUTE LYMPHOCYTE / ABSOLUTE MONOCYTE / ABSOLUTE SEGMENTED NEUTROPHIL / BASOPHIL / EOSINOPHIL / ERYTHROCYTE COUNT / HEMATOCRIT / HEMOGLOBIN / LEUKOCYTE COUNT / LYMPHOCYTE / MEAN CORPUSCULAR HEMOGLOBIN / MEAN CORPUSCULAR HEMOGLOBIN CONCENTRATION / MEAN CORPUSCULAR VOLUME / MONOCYTE / NEUTROPHIL / NUCLEATED RED BLOOD CELLS / PLATELET COUNT: tissue Blood; for ALANINE AMINOTRANSFERASE / ALBUMIN / ALKALINE PHOSPHATASE / ASPARTATE AMINOTRANSFERASE / BLOOD UREA NITROGEN / CARBON DIOXIDE / CHLORIDE / CHOLESTEROL / CREATINE PHOSPHOKINASE / CREATININE / GLUCOSE / LACTATE DEHYDROGENASE / LIPASE / PHOSPHORUS / POTASSIUM / SODIUM / TOTAL BILIRUBIN / TOTAL PROTEIN / URIC ACID: tissue Plasma
# [1] = 0 mg/kg, 72 h, dose level Control, time 3 day
# [2] = 0 mg/kg, 120 h, dose level Control, time 5 day
# [3] = 100 mg/kg, 72 h, dose level M1, time 3 day
smiles,measurement,setting,value
CC(C)(c1ccc(O)cc1)c1ccc(O)cc1 [BISPHENOL A],ABSOLUTE BASOPHIL,[1],0 CELLS/uL
same,ABSOLUTE EOSINOPHIL,[1],33 CELLS/uL
same,ABSOLUTE LYMPHOCYTE,[1],9048.5 CELLS/uL
same,ABSOLUTE MONOCYTE,[1],80.17 CELLS/uL
same,ABSOLUTE SEGMENTED NEUTROPHIL,[1],1521.67 CELLS/uL
same,BASOPHIL,[1],0%
same,EOSINOPHIL,[1],0.17%
same,ERYTHROCYTE COUNT,[1],5.46 x10E6/uL
same,HEMATOCRIT,[1],32.87%
same,HEMOGLOBIN,[1],12.95 G/DL
same,LEUKOCYTE COUNT,[1],10.68 x10E3/uL
same,LYMPHOCYTE,[1],86.67%
same,MEAN CORPUSCULAR HEMOGLOBIN,[1],23.72 pg
same,MEAN CORPUSCULAR HEMOGLOBIN CONCENTRATION,[1],39.4 G/DL
same,MEAN CORPUSCULAR VOLUME,[1],60.18 fL
same,MONOCYTE,[1],0.83%
same,NEUTROPHIL,[1],12.33%
same,NUCLEATED RED BLOOD CELLS,[1],0 /100WBC
same,PLATELET COUNT,[1],1211.33 x10E3/uL
same,ALANINE AMINOTRANSFERASE,[1],76.67 u/L
same,ALBUMIN,[1],3.93 G/DL
same,ALKALINE PHOSPHATASE,[1],317.17 u/L
same,ASPARTATE AMINOTRANSFERASE,[1],81.17 u/L
same,BLOOD UREA NITROGEN,[1],12.33 mg/dL
same,CARBON DIOXIDE,[1],31.17 mmol/L
same,CHLORIDE,[1],98.33 MEQ/L
same,CHOLESTEROL,[1],67.17 mg/dL
same,CREATINE PHOSPHOKINASE,[1],312.33 u/L
same,CREATININE,[1],0.19 mg/dL
same,GLUCOSE,[1],165.5 mg/dL
same,LACTATE DEHYDROGENASE,[1],94.5 u/L
same,LIPASE,[1],9.83 u/L
same,PHOSPHORUS,[1],10.1 mg/dL
same,POTASSIUM,[1],5.16 MEQ/L
same,SODIUM,[1],143.02 MEQ/L
same,TOTAL BILIRUBIN,[1],0.2 mg/dL
same,TOTAL PROTEIN,[1],5.88 G/DL
same,URIC ACID,[1],0.68 mg/dL
same,ABSOLUTE BASOPHIL,[2],0 CELLS/uL
same,ABSOLUTE EOSINOPHIL,[2],14.67 CELLS/uL
same,ABSOLUTE LYMPHOCYTE,[2],9629.83 CELLS/uL
same,ABSOLUTE MONOCYTE,[2],72.5 CELLS/uL
same,ABSOLUTE SEGMENTED NEUTROPHIL,[2],1049.67 CELLS/uL
same,BASOPHIL,[2],0%
same,EOSINOPHIL,[2],0.17%
same,ERYTHROCYTE COUNT,[2],5.36 x10E6/uL
same,HEMATOCRIT,[2],33.82%
same,HEMOGLOBIN,[2],13.48 G/DL
same,LEUKOCYTE COUNT,[2],10.77 x10E3/uL
same,LYMPHOCYTE,[2],90.17%
same,MEAN CORPUSCULAR HEMOGLOBIN,[2],25.28 pg
same,MEAN CORPUSCULAR HEMOGLOBIN CONCENTRATION,[2],39.92 G/DL
same,MEAN CORPUSCULAR VOLUME,[2],63.3 fL
same,MONOCYTE,[2],0.67%
same,NEUTROPHIL,[2],9%
same,NUCLEATED RED BLOOD CELLS,[2],0.17 /100WBC
same,PLATELET COUNT,[2],1275.33 x10E3/uL
same,ALANINE AMINOTRANSFERASE,[2],93.67 u/L
same,ALBUMIN,[2],4.17 G/DL
same,ALKALINE PHOSPHATASE,[2],402.5 u/L
same,ASPARTATE AMINOTRANSFERASE,[2],122.83 u/L
same,BLOOD UREA NITROGEN,[2],14.75 mg/dL
same,CARBON DIOXIDE,[2],26.4 mmol/L
same,CHLORIDE,[2],98.5 MEQ/L
same,CHOLESTEROL,[2],57.5 mg/dL
same,CREATINE PHOSPHOKINASE,[2],305.17 u/L
same,CREATININE,[2],0.21 mg/dL
same,GLUCOSE,[2],142 mg/dL
same,LACTATE DEHYDROGENASE,[2],83.5 u/L
same,LIPASE,[2],85.83 u/L
same,PHOSPHORUS,[2],8.18 mg/dL
same,POTASSIUM,[2],5.46 MEQ/L
same,SODIUM,[2],144 MEQ/L
same,TOTAL BILIRUBIN,[2],0.25 mg/dL
same,TOTAL PROTEIN,[2],5.63 G/DL
same,URIC ACID,[2],0.8 mg/dL
same,ABSOLUTE BASOPHIL,[3],0 CELLS/uL
same,ABSOLUTE EOSINOPHIL,[3],35.67 CELLS/uL
same,ABSOLUTE LYMPHOCYTE,[3],8627 CELLS/uL
same,ABSOLUTE MONOCYTE,[3],90.33 CELLS/uL
same,ABSOLUTE SEGMENTED NEUTROPHIL,[3],547 CELLS/uL
same,BASOPHIL,[3],0%
same,EOSINOPHIL,[3],0.33%
same,ERYTHROCYTE COUNT,[3],5.35 x10E6/uL
same,HEMATOCRIT,[3],33.47%
same,HEMOGLOBIN,[3],13.5 G/DL
same,LEUKOCYTE COUNT,[3],9.3 x10E3/uL
same,LYMPHOCYTE,[3],92.67%
same,MEAN CORPUSCULAR HEMOGLOBIN,[3],25.27 pg
same,MEAN CORPUSCULAR HEMOGLOBIN CONCENTRATION,[3],40.33 G/DL
same,MEAN CORPUSCULAR VOLUME,[3],62.63 fL
same,MONOCYTE,[3],1%
same,NEUTROPHIL,[3],6%
same,NUCLEATED RED BLOOD CELLS,[3],0 /100WBC
same,PLATELET COUNT,[3],906.33 x10E3/uL
same,ALANINE AMINOTRANSFERASE,[3],76.33 u/L
same,ALBUMIN,[3],4 G/DL
same,ALKALINE PHOSPHATASE,[3],385 u/L
same,ASPARTATE AMINOTRANSFERASE,[3],87 u/L
same,BLOOD UREA NITROGEN,[3],12 mg/dL
same,CARBON DIOXIDE,[3],31.67 mmol/L
same,CHLORIDE,[3],98 MEQ/L
same,CHOLESTEROL,[3],61 mg/dL
same,CREATINE PHOSPHOKINASE,[3],318 u/L
same,CREATININE,[3],0.17 mg/dL
same,GLUCOSE,[3],154 mg/dL
same,LACTATE DEHYDROGENASE,[3],114.33 u/L
same,LIPASE,[3],9.67 u/L
same,PHOSPHORUS,[3],10.63 mg/dL
same,POTASSIUM,[3],5.46 MEQ/L
same,SODIUM,[3],142.7 MEQ/L
same,TOTAL BILIRUBIN,[3],0.17 mg/dL
same,TOTAL PROTEIN,[3],5.73 G/DL
same,URIC ACID,[3],0.77 mg/dL

# — ChEMBL document CHEMBL3885881, “DrugMatrix”
